# In PubChem BioAssay AID504861 (Broad Institute, 2011):
# Calls of active or inactive are those of the source.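 How the source made its calls: active means compounds lowering cell viability signal with fitted half-maximal concentration at most ten times their highest tested concentration; inconclusive means flat fit with 30 to 70% signal loss, or poor fit; inactive means the rest.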
# Tested on: HEK293T viability, CellTiter-Glo ATP luminescence, 48 h
# Assay: cytotoxicity in HEK293T cells – cell-based, CellTiter-Glo luminescence, cherry-picks, cytotoxicity control for LMP1 NF-kB inhibitor project, dose response (AID 504861)
row,SMILES,AC50
1,O=C(NC1CCCCCCC1)c1cc(COc2ccc3ncccc3c2)on1,1.3 µM
2,CCCC(=O)NC(c1ccc(C)cc1)c1ccc2cccnc2c1O (centres undefined),4.45 µM
3,c1ccc(-c2nc(-c3ccccn3)no2)cc1,7.87 µM
4,O=C(CCc1ccccc1)NC(c1cccs1)c1cc(Cl)c2cccnc2c1O (centres undefined),9.28 µM
5,COc1ccc(NC2=NCC(Cc3ccc(Br)cc3)S2)cc1 (centres undefined),26.2 µM
6,CN(C)c1ccc(-c2nc3ccccc3n2C)cc1,14.1 µM
7,CCCCC(=O)NC(c1ccc(OC)c(OC)c1)c1ccc2cccnc2c1O (centres undefined),4.63 µM
8,Nc1nc2ccccc2n1C(=O)c1ccccc1,> 26 µM (inactive)
9,COc1ccc(Cc2nnc(N/N=C/c3ccc(O)cc3)[nH]c2=O)cc1OC,3.56 µM
10,Cc1[nH]n(-c2ccccc2)c(=O)c1/C=N/Nc1nncc(-c2ccccc2)n1,2.64 µM
11,NC(=S)NN=Cc1nccc2c(C(F)(F)C(F)(F)C(F)(F)F)cccc12,1.52 µM
12,C#CCn1c(S(=O)(=O)Cc2ccc(F)cc2)nc(-c2ccccc2)c1-c1ccccc1,> 26 µM (inactive)
13,CC(=NNC(=S)Nc1ccccc1Cl)c1ccccn1,0.922 µM
14,C[n+]1c2n(c3ccccc31)N=C(c1cc(C(C)(C)C)c(O)c(C(C)(C)C)c1)CS2,9.45 µM
15,CCOc1ccc(OCC(=O)Nc2nccs2)cc1,11.3 µM
16,Fc1ccc2[nH]c3c(N4CCSCC4)ncnc3c2c1,9.97 µM
17,COc1cccc(/C=N/Nc2ncccc2[N+](=O)[O-])c1OC,18.8 µM
18,NC(=S)NN=Cc1nccc2c(C(F)(F)F)cccc12,5.67 µM
19,CCCCC(=O)NC(c1ccc(Cl)cc1)c1ccc2cccnc2c1O (centres undefined),4.35 µM
20,COc1ccc2[nH]c(-c3ccc(C)cc3)cc(=O)c2c1,> 26 µM (inactive)
21,CCN1CCN(Cc2ccc(NC(=O)c3ccc(C)c(/C=C/c4cnc(Nc5cc(N6CCNCC6)nc(C)n5)cn4)c3)cc2C(F)(F)F)CC1,14.3 µM
22,C=C1C(=O)C2=CC1CCC(=O)C1(C)CCC(OC(C)=O)C(C)(C)C1CC2O (centres undefined),11.3 µM

row,SMILES,AC50
1,COc1ccc(C=C2CS(=O)(=O)CC(=Cc3ccc(OC)cc3)C2=O)cc1,11.8 µM
2,CCCc1sc(N/N=C/c2ccccn2)nc1-c1ccc(Br)cc1,21.4 µM
3,CCCc1nc2ccc(Br)cc2c(=O)n1-c1ccc([N+](=O)[O-])c(C(F)(F)F)c1,4.2 µM
4,Cc1ccc2[nH]c(C(=O)N/N=C/c3ccccc3O)c(C)c2c1,3.52 µM
5,CCN(CC)C(=O)c1ccc(NC(=O)Nc2ccccc2F)cc1,2.41 µM
6,O=C(N/N=C/c1cccs1)c1n[nH]c2c1CCCC2,27 µM
7,O=C1c2cccc3c([N+](=O)[O-])ccc(c23)C(=O)N1c1ccccn1,4.11 µM
8,NC(=S)N/N=C/c1ncc(C(F)(F)F)cc1Cl,17.9 µM
9,COc1ccc(/C=N/Nc2cc(C)nc3ccc(OC)cc23)c(OC)c1,5.04 µM
10,Oc1ccccc1/C=N/Nc1nccnc1Cl,> 26 µM (inactive)
11,CCC(=O)NC(c1ccc(C)cc1)c1ccc2cccnc2c1O (centres undefined),4.33 µM
12,Cc1csc(N=Nc2ccc(N(C)C)cc2)[n+]1[O-],5.71 µM
13,COc1cccc(/C=N/Nc2ncnc(Cl)c2N)c1O,3.23 µM
14,COc1ccc(/C=C/c2nc3ccccc3n2C)cc1,2.27 µM
15,COc1cccc(/C=N/NC(=O)c2[nH]nc3c2CCc2ccccc2-3)c1O,3.21 µM
16,O=C(/C=C/c1ccco1)Oc1cc(Br)cc(/C=N/NC(=O)c2ccccc2O)c1,3.47 µM
17,CCOc1ccc(Br)cc1/C(C)=N\NC1=NCCN1,3.69 µM
18,C#CCN(C[C@@H]1[C@@H](OC(=O)NCC2CCCCC2)[C@@H](OC(=O)NCC2CCCCC2)Cn2c(=O)ccc(=O)n21)S(=O)(=O)c1ccc(C)cc1,4.63 µM
19,COc1ccc(C(=O)NC2CCCc3c2cnn3-c2cccc(C)c2C)c(OC)n1 (centres undefined),24.1 µM
20,CCN(CC)CCC(=O)N1C/C(=C/c2ccccc2)C(=O)/C(=C\c2ccccc2)C1,3.88 µM
21,COc1ccc(OCc2cccc(C(=O)NN)c2)cc1,> 26 µM (inactive)
22,c1ccc(CCCN2CCN(CCOC(c3ccccc3)c3ccccc3)CC2)cc1,16.5 µM

row,SMILES,AC50
1,COc1cc([C@@H]2c3cc4c(cc3[C@@H](O[C@@H]3O[C@@H]5CO[C@@H](C)O[C@H]5[C@H](O)[C@H]3O)[C@H]3COC(=O)[C@H]23)OCO4)cc(OC)c1O,26.5 µM
2,COc1ccccc1/C=C/C(=O)c1ccc(Cl)cc1,12.4 µM
3,COc1ccccc1[C@]1(C)ON(c2ccccc2C(F)(F)F)C1=O,26.4 µM
4,CCN1CCN(Cc2ccc(NC(=O)c3ccc(C)c(NC(=O)c4cc(-c5ccc(Br)cc5)n[nH]4)c3)cc2C(F)(F)F)CC1,15.6 µM
5,COc1ccc(-c2nc(-c3cccs3)no2)cc1,> 26 µM (inactive)
6,COc1cccc(/C=N/Nc2nccnc2Cl)c1O,3.79 µM
7,CC(=O)NC(c1cccs1)c1cc(F)c2cccnc2c1O (centres undefined),4.67 µM
8,CC(=O)NC(c1ccc(C(C)C)cc1)c1ccc2cccnc2c1O (centres undefined),1.2 µM
9,CCN1CCN(Cc2ccc(NC(=O)c3ccc(C)c(NC(=O)c4c[nH]c5cc(C(F)(F)F)ccc5c4=O)c3)cc2C(F)(F)F)CC1,4.09 µM
10,CC(C)C(=O)NC(c1ccc(Cl)cc1Cl)c1ccc2cccnc2c1O (centres undefined),3 µM
11,CCC(=O)NC(c1cc(Cl)c2cccnc2c1O)C(C)C (centres undefined),9.32 µM
12,O=C1C(=C(c2ccccc2)N2CCOCC2)Cc2ccccc21,1.38 µM
13,Cn1c(/C=C/c2ccccc2)nc2ccccc21,9.76 µM
14,C(=Cc1cnc2ccccc2n1)c1ccc2c(c1)OCO2,1.74 µM
15,COc1ccc(N/N=C/c2c(C(=O)O)ccc3ccccc23)cc1,4.11 µM
16,CC(=NNC(=S)N1CCCCCC1)c1ccccn1,2.18 µM
17,CCOc1ccc(OCc2cccc(C(=O)N/N=C/c3cccnc3)c2)cc1,> 26 µM (inactive)
18,Cc1ccsc1/C=C/c1ccc2ccccc2n1,25.6 µM
19,CC(C)OC(=O)c1ccc(NCc2cc(O)ccc2O)cc1Cl,6.74 µM
20,Cc1ccc2[nH]c3c(N4CCN(Cc5ccccc5)CC4)ncnc3c2c1,12.2 µM
